In brackets after ≈: the same amount, converted by molar mass. Read-outs that look alike come from different tables or passages of the source.

Experimental findings from patent US8481696B2, “Glycosylated glycopeptide antibiotic derivatives” (Shionogi & Co., Ltd., priority 2007, dated 2013) are described below.

One assay concerns E. faecalis SR7914. Description: In vitro measurement of antibacterial activity (MIC, liquid dilution method). The format is cell-based. The settings on record: E. faecalis SR7914, vancomycin-resistant Enterococcus (VRE VanA); cation-adjusted Muller Hinton liquid medium; read-out: MIC (minimum growth inhibition concentration). As for the experimental part: (§1) Some of the present compounds were measured for a minimum growth inhibition concentration (MIC) by a small amount of liquid dilution method using a cation-adjusted Muller Hinton liquid medium well-known to a person skilled in the art.

Another assay relates to E. faecium SR7940. Described as above. The format is cell-based. The conditions noted are these: Enterococcus faecium. As for the experimental part: as §1
Where [1] appears, read: E. faecium SR7940, cation-adjusted Muller Hinton liquid medium, read-out: MIC (minimum growth inhibition concentration).

For `CN[C@H](CC(C)C)C(=O)N[C@H]1C(=O)N[C@@H](CC(N)=O)C(=O)N[C@H]2C(=O)N[C@H]3C(=O)N[C@H](C(=O)N[C@@H](C(=O)O)c4cc(O)cc(O)c4-c4cc3ccc4O)[C@H](OC3C[C@](C)(N)[C@@H](O)[C@H](C)O3)c3ccc(c(Cl)c3)Oc3cc2cc(c3O[C@@H]2O[C@H](CO)[C@@H](O[C@@H]3O[C@H](CNCc4ccc(-n5cccc5)cc4)[C@H](O)[C@H](O)[C@H]3O)[C@H](O)[C@H]2O)Oc2ccc(cc2Cl)[C@H]1O` (stereo partly drawn) [Example 65], the MIC is 2 to 4 µg/mL (≈ 1.13 to 2.27 µM) in the assay on E. faecalis SR7914 and 1 to 4 µg/mL (≈ 0.566 to 2.27 µM) in the assay on E. faecium SR7940 (setting [1]).
For the compound `CN[C@H](CC(C)C)C(=O)NC1C(=O)NC(CC(N)=O)C(=O)N[C@H]2C(=O)NC3C(=O)N[C@H](C(=O)N[C@H](C(=O)O)c4cc(O)cc(O)c4-c4cc3ccc4O)[C@H](OC3C[C@](C)(N)[C@@H](O)[C@H](C)O3)c3ccc(c(Cl)c3)Oc3cc2cc(c3O[C@@H]2O[C@H](CO)[C@@H](O[C@@H]3O[C@H](CNCc4ccc(-c5ccc(Cl)cc5)nc4)[C@H](O)[C@H](O)[C@H]3O)[C@H](O)[C@H]2O)Oc2ccc(cc2Cl)[C@H]1O` (stereo partly drawn) [Example 45], the MIC lay within 2 to 4 µg/mL (≈ 1.1 to 2.21 µM) in the assay with E. faecalis SR7914 and 1 to 4 µg/mL (≈ 0.552 to 2.21 µM) in the assay with E. faecium SR7940 (setting [1]).
The corresponding values for `CN[C@H](CC(C)C)C(=O)NC1C(=O)N[C@@H](CC(N)=O)C(=O)N[C@H]2C(=O)N[C@H]3C(=O)N[C@H](C(=O)N[C@@H](C(=O)O)c4cc(O)cc(O)c4-c4cc3ccc4O)[C@H](O[C@H]3C[C@](C)(NCc4cccnc4)[C@@H](O)[C@H](C)O3)c3ccc(c(Cl)c3)Oc3cc2cc(c3O[C@@H]2O[C@H](CO)[C@@H](O[C@@H]3O[C@H](CNCc4cccc(NC(=O)c5cccc(OC(F)(F)F)c5)c4)[C@H](O)[C@H](O)[C@H]3O)[C@H](O)[C@H]2O)Oc2ccc(cc2Cl)[C@H]1O` (stereo partly drawn) [Example 31] are 2 to 4 µg/mL (≈ 1 to 2.01 µM) and 1 to 4 µg/mL (≈ 0.501 to 2.01 µM).
On the same counts, the results for `CN[C@H](CC(C)C)C(=O)NC1C(=O)N[C@@H](CC(N)=O)C(=O)N[C@H]2C(=O)N[C@H]3C(=O)N[C@H](C(=O)N[C@@H](C(=O)O)c4cc(O)cc(O)c4-c4cc3ccc4O)[C@H](O[C@H]3C[C@](C)(NCc4c[nH]cn4)[C@@H](O)[C@H](C)O3)c3ccc(c(Cl)c3)Oc3cc2cc(c3O[C@@H]2O[C@H](CO)[C@@H](O[C@@H]3O[C@H](CNCc4cccc(NC(=O)c5cccc(OC(F)(F)F)c5)c4)[C@H](O)[C@H](O)[C@H]3O)[C@H](O)[C@H]2O)Oc2ccc(cc2Cl)[C@H]1O` (stereo partly drawn) [Example 30] are 2 to 4 µg/mL (≈ 1.01 to 2.02 µM) and 1 to 4 µg/mL (≈ 0.504 to 2.02 µM).
As to `CN[C@H](CC(C)C)C(=O)N[C@H]1C(=O)N[C@@H](CC(N)=O)C(=O)N[C@H]2C(=O)N[C@H]3C(=O)N[C@H](C(=O)N[C@@H](C(=O)O)c4cc(O)cc(O)c4-c4cc3ccc4O)[C@H](O[C@H]3C[C@](C)(N)[C@@H](O)[C@H](C)O3)c3ccc(c(Cl)c3)Oc3cc2cc(c3O[C@@H]2O[C@H](CO)[C@@H](O[C@@H]3O[C@H](CNCc4ccc(-c5ccc(OC)cc5)s4)[C@H](O)[C@H](O)[C@H]3O)[C@H](O)[C@H]2O)Oc2ccc(cc2Cl)[C@H]1O` [Example 83], the MIC in the assay on E. faecalis SR7914 fell in the range of 2 to 4 µg/mL (≈ 1.1 to 2.21 µM); in the assay on E. faecium SR7940 (setting [1]), 1 to 4 µg/mL (≈ 0.552 to 2.21 µM).
Turning to `CN[C@H](CC(C)C)C(=O)N[C@H]1C(=O)N[C@@H](CC(N)=O)C(=O)N[C@H]2C(=O)N[C@H]3C(=O)NC(C(=O)N[C@@H](C(=O)O)c4cc(O)cc(O)c4-c4cc3ccc4O)[C@H](O)c3ccc(c(Cl)c3)Oc3cc2cc(c3OC2O[C@H](CO)[C@@H](O)[C@H](O)[C@H]2OC2C[C@](C)(N)[C@H](O)[C@H](C)O2)Oc2ccc(cc2Cl)[C@H]1O` (stereo partly drawn) [vancomycin, reference compound], the MIC in the assay on E. faecium SR7940 (SR7940, read-out: MIC (minimum growth inhibition concentration)) is more than 64 µg/mL.
For `CN[C@H](CC(C)C)C(=O)N[C@H]1C(=O)N[C@@H](CC(N)=O)C(=O)N[C@H]2C(=O)N[C@H]3C(=O)N[C@H](C(=O)N[C@@H](C(=O)O)c4cc(O)cc(O)c4-c4cc3ccc4O)[C@H](O[C@H]3C[C@](C)(N)[C@@H](O)[C@H](C)O3)c3ccc(c(Cl)c3)Oc3cc2cc(c3O[C@@H]2O[C@H](CO)[C@@H](O[C@@H]3O[C@H](CNCc4ccc(-c5cc(F)cc(F)c5)s4)[C@H](O)[C@H](O)[C@H]3O)[C@H](O)[C@H]2O)Oc2ccc(cc2Cl)[C@H]1O` [Example 82], the MIC fell in the range of 2 to 4 µg/mL (≈ 1.1 to 2.2 µM) with E. faecalis SR7914 and 1 to 4 µg/mL (≈ 0.55 to 2.2 µM) in the assay with E. faecium SR7940 (setting [1]).
As for `CN[C@H](CC(C)C)C(=O)NC1C(=O)NC(CC(N)=O)C(=O)N[C@H]2C(=O)NC3C(=O)N[C@H](C(=O)N[C@H](C(=O)O)c4cc(O)cc(O)c4-c4cc3ccc4O)[C@H](OC3C[C@](C)(N)[C@@H](O)[C@H](C)O3)c3ccc(c(Cl)c3)Oc3cc2cc(c3O[C@@H]2O[C@H](CO)[C@@H](O[C@@H]3O[C@H](CNCc4ccc(-c5cccc(F)c5)s4)[C@H](O)[C@H](O)[C@H]3O)[C@H](O)[C@H]2O)Oc2ccc(cc2Cl)[C@H]1O` (stereo partly drawn) [Example 43], the figures for the MIC with E. faecalis SR7914 and in the assay on E. faecium SR7940 (setting [1]) were 2 to 4 µg/mL (≈ 1.11 to 2.22 µM) and 1 to 4 µg/mL (≈ 0.555 to 2.22 µM), respectively.
In the case of `CN[C@H](CC(C)C)C(=O)N[C@H]1C(=O)N[C@@H](CC(N)=O)C(=O)N[C@H]2C(=O)N[C@H]3C(=O)N[C@H](C(=O)N[C@@H](C(=O)O)c4cc(O)cc(O)c4-c4cc3ccc4O)[C@H](OC3C[C@](C)(N)[C@@H](O)[C@H](C)O3)c3ccc(c(Cl)c3)Oc3cc2cc(c3O[C@@H]2O[C@H](CO)[C@@H](O[C@@H]3O[C@H](CNCc4ccc(-c5cccs5)s4)[C@H](O)[C@H](O)[C@H]3O)[C@H](O)[C@H]2O)Oc2ccc(cc2Cl)[C@H]1O` (stereo partly drawn) [Example 75], the values for the MIC with E. faecalis SR7914 and with E. faecium SR7940 (setting [1]) were 2 to 4 µg/mL (≈ 1.12 to 2.24 µM) and 1 to 4 µg/mL (≈ 0.559 to 2.24 µM), respectively.
`CN[C@H](CC(C)C)C(=O)NC1C(=O)N[C@@H](CC(N)=O)C(=O)N[C@H]2C(=O)N[C@H]3C(=O)N[C@H](C(=O)N[C@@H](C(=O)O)c4cc(O)cc(O)c4-c4cc3ccc4O)[C@H](OC3C[C@](C)(N)[C@@H](O)[C@H](C)O3)c3ccc(c(Cl)c3)Oc3cc2cc(c3O[C@@H]2O[C@H](CO)[C@@H](O[C@@H]3O[C@H](CNCc4ccc(Oc5ccc(F)cc5)cc4)[C@H](O)[C@H](O)[C@H]3O)[C@H](O)[C@H]2O)Oc2ccc(cc2Cl)[C@H]1O` (stereo partly drawn) [Example 50]: the values for the MIC in the assay with E. faecalis SR7914 and with E. faecium SR7940 (setting [1]) were 2 to 4 µg/mL (≈ 1.1 to 2.21 µM) and 1 to 4 µg/mL (≈ 0.552 to 2.21 µM), respectively.
As for `CN[C@H](CC(C)C)C(=O)NC1C(=O)NC(CC(N)=O)C(=O)N[C@H]2C(=O)NC3C(=O)N[C@H](C(=O)N[C@H](C(=O)O)c4cc(O)cc(O)c4-c4cc3ccc4O)[C@H](O[C@H]3C[C@](C)(N)[C@@H](O)[C@H](C)O3)c3ccc(c(Cl)c3)Oc3cc2cc(c3O[C@@H]2O[C@H](CO)[C@@H](O[C@@H]3O[C@H](CNCCn4ccc(NC(=O)c5ccc(OC(F)(F)F)cc5)nc4=O)[C@H](O)[C@H](O)[C@H]3O)[C@H](O)[C@H]2O)Oc2ccc(cc2Cl)[C@H]1O` (stereo partly drawn) [Example 11], the MIC in the assay on E. faecalis SR7914 lay in the range of 2 to 4 µg/mL (≈ 1.03 to 2.07 µM); in the assay on E. faecium SR7940 (setting [1]) it was 1 to 4 µg/mL (≈ 0.517 to 2.07 µM).
As for `CN[C@H](CC(C)C)C(=O)NC1C(=O)NC(CC(N)=O)C(=O)N[C@H]2C(=O)NC3C(=O)N[C@H](C(=O)NC(C(=O)O)c4cc(O)cc(O)c4-c4cc3ccc4O)[C@H](O[C@H]3C[C@](C)(N)[C@@H](O)[C@H](C)O3)c3ccc(c(Cl)c3)Oc3cc2cc(c3O[C@@H]2O[C@H](CO)[C@@H](O[C@@H]3O[C@H](CNCc4ccc(-c5ccc(F)c(F)c5)nc4)[C@H](O)[C@H](O)[C@H]3O)[C@H](O)[C@H]2O)Oc2ccc(cc2Cl)[C@H]1O` (stereo partly drawn) [Example 88], the results for the MIC with E. faecalis SR7914 and in the assay with E. faecium SR7940 (setting [1]) were 2 to 4 µg/mL (≈ 1.1 to 2.21 µM) and 1 to 4 µg/mL (≈ 0.551 to 2.21 µM), respectively.
Turning to `CN[C@H](CC(C)C)C(=O)NC1C(=O)N[C@@H](CC(N)=O)C(=O)N[C@H]2C(=O)N[C@H]3C(=O)N[C@H](C(=O)N[C@@H](C(=O)O)c4cc(O)cc(O)c4-c4cc3ccc4O)[C@H](O[C@H]3C[C@](C)(N)[C@@H](O)[C@H](C)O3)c3ccc(c(Cl)c3)Oc3cc2cc(c3O[C@@H]2O[C@H](CO)[C@@H](O[C@@H]3O[C@H](CNCc4ccc(-c5ccc(Cl)cc5)s4)[C@H](O)[C@H](O)[C@H]3O)[C@H](O)[C@H]2O)Oc2ccc(cc2Cl)[C@H]1O` (stereo partly drawn) [Example 13], the MIC with E. faecalis SR7914 fell in the range of 2 to 4 µg/mL (≈ 1.1 to 2.2 µM); with E. faecium SR7940 (setting [1]) it was 1 to 4 µg/mL (≈ 0.55 to 2.2 µM).
For the compound `CN[C@H](CC(C)C)C(=O)N[C@H]1C(=O)N[C@@H](CC(N)=O)C(=O)N[C@H]2C(=O)N[C@H]3C(=O)N[C@H](C(=O)N[C@@H](C(=O)O)c4cc(O)cc(O)c4-c4cc3ccc4O)[C@H](OC3C[C@](C)(N)[C@@H](O)[C@H](C)O3)c3ccc(c(Cl)c3)Oc3cc2cc(c3O[C@@H]2O[C@H](CO)[C@@H](O[C@@H]3O[C@H](CNCc4ccc(C(=O)NCc5ccc(Cl)c(Cl)c5)cc4)[C@H](O)[C@H](O)[C@H]3O)[C@H](O)[C@H]2O)Oc2ccc(cc2Cl)[C@H]1O` (stereo partly drawn) [Example 69], the MIC with E. faecalis SR7914 lay in the range of 2 to 4 µg/mL (≈ 1.05 to 2.1 µM); in the assay with E. faecium SR7940 (setting [1]), 1 to 4 µg/mL (≈ 0.526 to 2.1 µM).
